Measured values as given in ChEMBL document CHEMBL3352178, “Antidepressant- and anxiolytic-like activity of 7-phenylpiperazinylalkyl-1,3-dimethyl-purine-2,6-dione derivatives with diversified 5-HT₁A receptor functional profile” (Bioorg Med Chem, 2015).
The source made the active and inactive calls. The calls are words filed in the database; no cut-off is given here.

Legend:
[1] = molecular target: T1, 5-hydroxytryptamine receptor 1A (Rattus norvegicus, UniProt P19327); experiment: Displacement of [3H]-8-OH-DPAT from 5-HT1AR in rat hippocampus; type: tissue-based
T1 sequence (P19327 whole entry): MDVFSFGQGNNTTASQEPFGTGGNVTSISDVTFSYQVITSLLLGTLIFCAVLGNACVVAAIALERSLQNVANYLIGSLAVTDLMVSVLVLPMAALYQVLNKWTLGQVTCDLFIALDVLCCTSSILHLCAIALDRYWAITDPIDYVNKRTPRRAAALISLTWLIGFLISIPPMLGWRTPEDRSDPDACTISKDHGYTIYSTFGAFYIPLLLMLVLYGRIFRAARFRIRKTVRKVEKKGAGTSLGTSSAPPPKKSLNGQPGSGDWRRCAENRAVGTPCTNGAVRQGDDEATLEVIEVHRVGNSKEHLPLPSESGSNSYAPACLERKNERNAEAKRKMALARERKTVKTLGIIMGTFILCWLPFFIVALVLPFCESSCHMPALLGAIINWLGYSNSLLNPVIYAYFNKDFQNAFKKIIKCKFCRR

[2] = molecular target: 5-hydroxytryptamine receptor 2A (Rattus norvegicus, UniProt P14842); experiment: Displacement of [3H]-ketanserin from 5-HT2AR in rat cortex
Chain of 5-hydroxytryptamine receptor 2A (P14842 whole entry): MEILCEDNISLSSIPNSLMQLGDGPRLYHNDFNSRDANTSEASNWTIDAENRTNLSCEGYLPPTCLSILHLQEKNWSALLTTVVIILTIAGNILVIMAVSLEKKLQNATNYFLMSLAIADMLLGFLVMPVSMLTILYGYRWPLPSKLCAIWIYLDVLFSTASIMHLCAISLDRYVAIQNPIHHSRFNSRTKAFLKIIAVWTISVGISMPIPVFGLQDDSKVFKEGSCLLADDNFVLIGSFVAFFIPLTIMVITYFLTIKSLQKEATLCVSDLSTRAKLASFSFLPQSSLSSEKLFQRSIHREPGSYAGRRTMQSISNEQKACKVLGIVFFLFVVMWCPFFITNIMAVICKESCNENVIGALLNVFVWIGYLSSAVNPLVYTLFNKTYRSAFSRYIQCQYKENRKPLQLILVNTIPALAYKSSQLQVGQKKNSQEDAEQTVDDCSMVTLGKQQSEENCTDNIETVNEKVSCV

[3] = molecular target: 5-hydroxytryptamine receptor 6 (Homo sapiens, UniProt P50406); experiment: Displacement of [3H]LSD from human cloned 5-HT6R expressed in HEK293 cells; type: cell-based
Chain of 5-hydroxytryptamine receptor 6 (P50406 whole entry): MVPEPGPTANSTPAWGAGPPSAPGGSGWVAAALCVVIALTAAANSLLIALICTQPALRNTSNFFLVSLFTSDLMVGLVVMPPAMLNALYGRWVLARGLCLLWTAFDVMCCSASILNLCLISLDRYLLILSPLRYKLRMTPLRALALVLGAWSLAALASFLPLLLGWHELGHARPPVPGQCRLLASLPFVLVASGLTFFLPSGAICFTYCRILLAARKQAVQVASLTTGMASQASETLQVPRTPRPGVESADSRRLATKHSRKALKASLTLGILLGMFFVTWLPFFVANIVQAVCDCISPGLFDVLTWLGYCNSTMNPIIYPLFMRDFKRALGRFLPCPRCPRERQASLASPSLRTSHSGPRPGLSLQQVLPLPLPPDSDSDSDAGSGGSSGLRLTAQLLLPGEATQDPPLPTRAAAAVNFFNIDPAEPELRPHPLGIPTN

[4] = molecular target: 5-hydroxytryptamine receptor 7 (Homo sapiens, UniProt P34969); experiment: Displacement of [3H]]-5-CT from human cloned 5-HT7R expressed in HEK293 cells; type: cell-based
Chain of 5-hydroxytryptamine receptor 7 (P34969 whole entry): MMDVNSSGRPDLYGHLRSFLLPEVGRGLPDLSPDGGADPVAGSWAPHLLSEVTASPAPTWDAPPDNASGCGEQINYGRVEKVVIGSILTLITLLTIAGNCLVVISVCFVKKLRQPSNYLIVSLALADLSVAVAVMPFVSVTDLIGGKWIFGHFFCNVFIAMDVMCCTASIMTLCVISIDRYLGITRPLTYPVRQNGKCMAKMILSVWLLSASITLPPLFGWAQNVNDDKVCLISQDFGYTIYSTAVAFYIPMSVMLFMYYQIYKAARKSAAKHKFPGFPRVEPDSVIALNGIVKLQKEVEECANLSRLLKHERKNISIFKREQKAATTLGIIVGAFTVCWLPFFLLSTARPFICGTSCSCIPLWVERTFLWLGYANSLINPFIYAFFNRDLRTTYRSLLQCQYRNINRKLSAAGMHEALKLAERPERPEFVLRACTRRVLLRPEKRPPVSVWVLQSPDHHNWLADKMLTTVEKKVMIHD

D(2) dopamine receptor = D(2) dopamine receptor (Rattus norvegicus, UniProt P61169); experiment: Displacement of [3H]-spiperone from dopamine D2 receptor in rat striatum
Chain of D(2) dopamine receptor (P61169 whole entry): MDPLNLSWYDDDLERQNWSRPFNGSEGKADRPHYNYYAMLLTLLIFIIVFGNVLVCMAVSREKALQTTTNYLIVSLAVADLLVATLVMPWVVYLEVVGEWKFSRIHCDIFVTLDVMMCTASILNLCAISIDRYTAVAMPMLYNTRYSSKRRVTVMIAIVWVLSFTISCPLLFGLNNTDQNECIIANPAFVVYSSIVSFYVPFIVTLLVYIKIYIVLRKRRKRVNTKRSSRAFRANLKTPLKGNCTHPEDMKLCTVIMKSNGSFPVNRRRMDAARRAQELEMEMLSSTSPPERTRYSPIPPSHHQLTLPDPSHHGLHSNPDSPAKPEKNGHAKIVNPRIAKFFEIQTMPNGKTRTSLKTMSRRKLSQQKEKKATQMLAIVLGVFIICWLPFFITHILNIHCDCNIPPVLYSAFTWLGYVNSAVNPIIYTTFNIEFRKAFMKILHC

Mus musculus [5] = experiment: Anxiolytic-like activity in mouse assessed as increase in number of punished crossings at 1.25 to 5 mg/kg, ip dosed 60 mins before test by four plate test; type: functional, organism-based
Mus musculus [6] = experiment: Antidepressant-like activity in mouse assessed as reduction in immobility time at 10 to 20 mg/kg, ip dosed 60 mins before test by forced swim test; type: functional, organism-based
Mus musculus [7] = experiment: Effect on spontaneous locomotor activity in ip dosed mouse during 2 to 6 mins; type: ADME, organism-based; settings: in vivo

SMILES	Ki [1]	Ki [2]	Ki [3]	Ki [4]	Ki (D(2) dopamine receptor)	Activity (Mus musculus [5])	Activity (Mus musculus [6])	Activity (Mus musculus [7])
Cn1c(=O)c2c(ncn2CCCN2CCc3ccccc3C2)n(C)c1=O	433 nM	10500 nM	12300 nM	3620 nM	2710 nM	–	–	–
CN1C(=O)CN=C(c2ccccc2)c2cc(Cl)ccc21	–	–	–	–	–	Active	–	–
Cn1c(=O)c2c(ncn2CCCCCN2CCc3ccccc3C2)n(C)c1=O	171 nM	16400 nM	9140 nM	1010 nM	1220 nM	–	–	–
COc1ccccc1N1CCN(CCCn2cnc3c2c(=O)n(C)c(=O)n3C)CC1	119 nM	927 nM	12100 nM	2210 nM	944 nM	–	–	–
Cn1c(=O)c2c(ncn2CCCN2CCN(c3ccccc3)CC2)n(C)c1=O	571 nM	92 nM	20100 nM	1430 nM	1090 nM	–	–	–
Cn1c(=O)c2c(ncn2CCCCN2CCN(c3cccc(Cl)c3Cl)CC2)n(C)c1=O	55 nM	162 nM	68 nM	73 nM	15 nM	–	–	–
CN(C)CCCN1c2ccccc2CCc2ccccc21 [IMIPRAMINE]	–	–	–	–	–	–	Active	Non-toxic
Cn1c(=O)c2c(ncn2CCCCN2CCN(c3ccc(Cl)c(Cl)c3)CC2)n(C)c1=O	105 nM	460 nM	1900 nM	179 nM	73 nM	–	–	–
